In patent US11999727B2 (Tango Therapeutics, Inc., priority 2020, dated 2024):
pIC50: −log10 of the molar value.

Experiments:
PRMT5 [1] = molecular target: T1, PRMT5 (Homo sapiens, UniProt O14744); assay: PRMT5 biochemical IC50 assay with SAM as cofactor; conditions: PRMT5, SAM as cofactor; read-out: SAM IC50
T1 construct: purchased Viva (custom protein)

PRMT5 [2] = molecular target: T1, PRMT5; assay: PRMT5 biochemical IC50 assay with no cofactor; conditions: PRMT5, no cofactor; read-out: No Cofactor/rel IC50
Text: Table 1 indicates IC50 values (μM) against PRMT5 for exemplary compounds in the presence of SAM as cofactor, with no cofactor, and with MTA as cofactor, respectively (columns 4-6). […] Ki values can be calculated from the IC50 values as described in the Examples section. As detailed in the Examples section, for the assay performed in the presence of SAM, IC50=Ki×1.5 (Ki=IC50/1.5).

PRMT5 [3] = molecular target: T1, PRMT5; assay: PRMT5 biochemical IC50 assay with MTA as cofactor; conditions: PRMT5, MTA as cofactor; read-out: MTA IC50
[4] = test system: HAP1 MTAP-intact cell line; assay: SDMA in-cell western assay, HAP1 MTAP-intact; type: cell-based; conditions: Homo sapiens, HAP1, SDMA in-cell western, HAP1 MTAP-intact; read-out: MTAP HAP1 intact IC50
How it was run: (§1)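 MTAP-null vs endogenous-MTAP HAP1 isogenic cells; in-cell western SDMA readout; IC50 per line.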

[5] = test system: HAP1 MTAP-deleted cell line; assay: SDMA in-cell western assay, HAP1 MTAP-deleted; type: cell-based; conditions: for pIC50: Homo sapiens, HAP1, SDMA in-cell western, HAP1 MTAP-deleted; for MTAP intact/deleted ratio: IC50 ratio HAP1 MTAP-intact / HAP1 MTAP-deleted, SDMA in-cell western
How it was run: as §1

[6] = test system: HAP1 MTAP-deleted cell line; assay: Viability assay, MTAP-deleted cell line; type: cell-based; conditions: Homo sapiens, HAP1, viability assay, read-out: HAP1 MTAP deleted viability
Text: Table 1 additionally indicates IC50 values in a viability assay for the MTAP-deleted cell line (column 10), indicating the effect of treatment with compound on cell survival.

[7] = read-out: HAP1 MTAP deleted IC50
[8] = read-out: HAP 1 MTAP deleted IC50

T1 sequence (O14744 whole entry): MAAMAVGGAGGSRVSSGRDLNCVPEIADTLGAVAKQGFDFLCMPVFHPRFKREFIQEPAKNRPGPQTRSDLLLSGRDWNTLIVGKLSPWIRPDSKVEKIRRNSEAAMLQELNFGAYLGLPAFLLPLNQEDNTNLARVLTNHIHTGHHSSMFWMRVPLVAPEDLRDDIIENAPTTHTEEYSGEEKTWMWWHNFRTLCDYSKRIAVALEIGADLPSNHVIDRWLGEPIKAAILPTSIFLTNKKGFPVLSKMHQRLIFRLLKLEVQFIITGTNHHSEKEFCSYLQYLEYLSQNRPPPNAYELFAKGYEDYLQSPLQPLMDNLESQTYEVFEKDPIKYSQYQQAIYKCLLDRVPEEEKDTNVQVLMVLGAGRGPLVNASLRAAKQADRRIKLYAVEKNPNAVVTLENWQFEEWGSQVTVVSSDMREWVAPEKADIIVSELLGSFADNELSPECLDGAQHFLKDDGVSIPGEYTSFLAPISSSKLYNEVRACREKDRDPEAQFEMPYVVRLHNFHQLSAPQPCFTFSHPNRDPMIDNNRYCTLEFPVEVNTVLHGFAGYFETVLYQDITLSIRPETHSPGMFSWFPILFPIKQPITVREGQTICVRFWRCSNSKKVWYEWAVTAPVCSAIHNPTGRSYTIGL
T1 sequence (Q9BQA1 whole entry partner): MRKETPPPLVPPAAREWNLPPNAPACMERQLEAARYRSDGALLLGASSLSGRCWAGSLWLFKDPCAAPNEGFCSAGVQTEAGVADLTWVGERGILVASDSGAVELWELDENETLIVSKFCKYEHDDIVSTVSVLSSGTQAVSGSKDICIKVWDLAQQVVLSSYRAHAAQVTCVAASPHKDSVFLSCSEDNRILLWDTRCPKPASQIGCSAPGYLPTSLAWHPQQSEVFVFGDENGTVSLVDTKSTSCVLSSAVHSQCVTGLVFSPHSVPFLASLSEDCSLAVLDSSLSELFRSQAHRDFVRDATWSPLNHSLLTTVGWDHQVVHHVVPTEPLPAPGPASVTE

Row | Structure (SMILES) | pIC50 (PRMT5 [1]) | pIC50 (PRMT5 [2]) | pIC50 (PRMT5 [3]) | pIC50 [4] | pIC50 [5, 7] | MTAP intact/deleted ratio [5] | pIC50 ([6]; HAP1 MTAP-deleted) | pIC50 [5, 8] | pIC50 ([6]; MTAP-deleted cell line)
1 | CNc1ccc([C@@H]2CC[C@@H](C)CN2C(=O)C(=O)Nc2cnc(N)c(C)c2)cn1 (single isomer, unassigned) [Compound 864] | 6.30 to 7.30 | > 7.30 | > 7.30 | 6.00 to 7.00 | > 7.00 | B (an IC50 ratio greater than or equal to 3 fold but lower than 10 fold) | > 6.00 |  | 
2 | CCc1cc(NC(=O)C(=O)N2C[C@H](C)CC[C@H]2c2ccc(NC)nc2)cnc1N (single isomer, unassigned) [Compound 865] | 6.30 to 7.30 | > 7.30 | > 7.30 | 6.00 to 7.00 | > 7.00 | A (an IC50 ratio greater than or equal to 10 fold) | > 6.00 |  | 
3 | CCc1cc(NC(=O)C(=O)N2C[C@H](C)CC[C@H]2c2ccc(NS(C)(=O)=O)cc2)cnc1N (single isomer, unassigned) [Compound 866] | < 6.30 | < 6.30 | < 6.30 | < 6.00 | < 6.00 | C (an IC50 ratio of less than 3 fold) | < 5.00 |  | 
4 | C[C@@H]1CC[C@@H](c2cc3[nH]ncc3s2)N(C(=O)C(=O)Nc2cncc(C(N)=O)c2)C1 (single isomer, unassigned) [Compound 868, 5-(2-(5-methyl-2-(1H-thieno[3,2-c]pyrazol-5-yl)piperidin-1-yl)-2-oxoacetamido)nicotinamide] | < 6.30 | < 6.30 | < 6.30 | < 6.00 | < 6.00 | C (an IC50 ratio of less than 3 fold) | < 5.00 |  | 
5 | C[C@H]1CC[C@H](c2cc3[nH]ncc3s2)N(C(=O)C(=O)Nc2cncc(C(N)=O)c2)C1 (single isomer, unassigned) [Compound 873, 5-(2-(5-methyl-2-(1H-thieno[3,2-c]pyrazol-5-yl)piperidin-1-yl)-2-oxoacetamido)nicotinamide] | 6.30 to 7.30 | 6.30 to 7.30 | > 7.30 | < 6.00 | > 7.00 | A (an IC50 ratio greater than or equal to 10 fold) | > 6.00 |  | 
6 | Cc1ncc(NC(=O)C(=O)N2C[C@H](C)CC[C@H]2c2ccc3c(c2)CCC(=O)N3)cc1C(F)F (single isomer, unassigned) [Compound 874] | 6.30 to 7.30 | 6.30 to 7.30 | > 7.30 | 6.00 to 7.00 | > 7.00 | A (an IC50 ratio greater than or equal to 10 fold) | > 6.00 |  | 
7 | CNc1nc2cc([C@@H]3CC[C@@H](C)CN3C(=O)C(=O)Nc3cnc(OC)c(C(N)=O)c3)ccc2s1 (single isomer, unassigned) [Compound 875] | < 6.30 | < 6.30 | < 6.30 | < 6.00 | < 6.00 | B (an IC50 ratio greater than or equal to 3 fold but lower than 10 fold) | < 5.00 |  | 
8 | CNc1ccc([C@H]2CC[C@H](C)CN2C(=O)C(=O)Nc2cnc(N)c(C)c2)cn1 (single isomer, unassigned) [Compound 876] | < 6.30 | < 6.30 | < 6.30 | < 6.00 | < 6.00 | B (an IC50 ratio greater than or equal to 3 fold but lower than 10 fold) | < 5.00 |  | 
9 | CNc1nc2cc([C@@H]3CC[C@@H](C)CN3C(=O)C(=O)Nc3cncc(C(N)=O)c3)ccc2s1 (single isomer, unassigned) [Compound 877] | 6.30 to 7.30 | 6.30 to 7.30 | > 7.30 | < 6.00 | > 7.00 | A (an IC50 ratio greater than or equal to 10 fold) | > 6.00 |  | 
10 | CCc1cc(NC(=O)C(=O)N2C[C@@H](C)CC[C@@H]2c2ccc(NC)nc2)cnc1N (single isomer, unassigned) [Compound 878] | < 6.30 | < 6.30 | < 6.30 | < 6.00 | < 6.00 | C (an IC50 ratio of less than 3 fold) | < 5.00 |  | 
11 | COc1ncc(NC(=O)C(=O)N2C[C@@H](C)CC[C@@H]2c2ccn(-c3cc[nH]n3)n2)cc1C(N)=O (single isomer, unassigned) [Compound 881] | < 6.30 | < 6.30 | < 6.30 | < 6.00 | < 6.00 | B (an IC50 ratio greater than or equal to 3 fold but lower than 10 fold) | < 5.00 |  | 
12 | C[C@H]1CC[C@H](c2ccn(-c3cc[nH]n3)n2)N(C(=O)C(=O)Nc2cncc(C(N)=O)c2)C1 (single isomer, unassigned) [Compound 882] | < 6.30 | < 6.30 | < 6.30 | < 6.00 | < 6.00 | C (an IC50 ratio of less than 3 fold) | < 5.00 |  | 
13 | C[C@@H]1CC[C@@H](c2cccc3[nH]ncc23)N(C(=O)C(=O)Nc2cncc(C(N)=O)c2)C1 (single isomer, unassigned) [Compound 883] | < 6.30 | < 6.30 | < 6.30 | < 6.00 | < 6.00 | C (an IC50 ratio of less than 3 fold) | < 5.00 |  | 
14 | CCc1cc(NC(=O)C(=O)N2C[C@@H](C)CC[C@@H]2c2ccc3sc(NC)nc3c2)cnc1N (single isomer, unassigned) [Compound 884] | 6.30 to 7.30 | > 7.30 | > 7.30 | 6.00 to 7.00 |  | A (an IC50 ratio greater than or equal to 10 fold) |  | > 7.00 | > 6.00
15 | Cc1cc(NC(=O)C(=O)N2C[C@@H](C)CC[C@@H]2c2ccc(-c3cncs3)cc2)cnc1N (single isomer, unassigned) [Compound 887, N-(6-amino-5-methylpyridin-3-yl)-2-(5-methyl-2-(4-(thiazol-5-yl)phenyl)piperidin-1-yl)-2-oxoacetamide] | 6.30 to 7.30 | 6.30 to 7.30 | > 7.30 | > 7.00 |  | B (an IC50 ratio greater than or equal to 3 fold but lower than 10 fold) |  | > 7.00 | > 6.00
16 | CCc1cc(NC(=O)C(=O)N2C[C@@H](C)CC[C@@H]2c2ccc(NC(C)=O)cc2)cnc1N (single isomer, unassigned) [Compound 890] | 6.30 to 7.30 | > 7.30 | > 7.30 | 6.00 to 7.00 |  | A (an IC50 ratio greater than or equal to 10 fold) |  | > 7.00 | > 6.00
17 | CCc1cc(NC(=O)C(=O)N2C[C@H](C)CC[C@H]2c2ccc(NC(C)=O)cc2)cnc1N (single isomer, unassigned) [Compound 893] | < 6.30 | < 6.30 | < 6.30 | < 6.00 |  | B (an IC50 ratio greater than or equal to 3 fold but lower than 10 fold) |  | < 6.00 | < 5.00
18 | COc1ncc(NC(=O)C(=O)N2C[C@H](C)CC[C@H]2c2ccn(-c3cc[nH]n3)n2)cc1C(N)=O (single isomer, unassigned) [Compound 894] | 6.30 to 7.30 | 6.30 to 7.30 | > 7.30 | < 6.00 |  | A (an IC50 ratio greater than or equal to 10 fold) |  | > 7.00 | 5.00 to 6.00
19 | Cc1cc(NC(=O)C(=O)N2C[C@H](C)CC[C@H]2c2cccc(S(C)(=O)=O)c2)cnc1N (single isomer, unassigned) [Compound 895] | 6.30 to 7.30 | 6.30 to 7.30 | > 7.30 | 6.00 to 7.00 |  | B (an IC50 ratio greater than or equal to 3 fold but lower than 10 fold) |  | > 7.00 | 5.00 to 6.00
20 | CCc1cc(NC(=O)C(=O)N2C[C@H](C)CC[C@H]2c2ccc3sc(NC)nc3c2)cnc1N (single isomer, unassigned) [Compound 896] | < 6.30 | < 6.30 | < 6.30 | < 6.00 |  | B (an IC50 ratio greater than or equal to 3 fold but lower than 10 fold) |  | < 6.00 | < 5.00
21 | C[C@H]1CC[C@H](c2cccc3[nH]ncc23)N(C(=O)C(=O)Nc2cncc(C(N)=O)c2)C1 (single isomer, unassigned) [Compound 897] | 6.30 to 7.30 | 6.30 to 7.30 | > 7.30 | < 6.00 |  | A (an IC50 ratio greater than or equal to 10 fold) |  | > 7.00 | 5.00 to 6.00
